“Also recorded” adds a separate entry of the source.
Key:
Assay type in all cases: biochemical
[1] = tested on: unknown RNase in psoralen biotin; assay: Integrity of psoralen biotin labeled Millennium Markers after 37° C., 16 hours; conditions: 5 mM DTT; 90° C. for 10 minutes; then 37° C. for 16 hours
Procedure: The Millennium™ Markers (Ambion, Inc.) are a set of RNA size markers from 0.5 to 9 kb in length. They are used for determining the length of an unknown RNA. These markers were being labeled with biotin using a psoralen biotin labeling procedure so that they could be detected non-isotopically on a nylon membrane. However, if the Millennium™Markers were incubated at 37° C. for 16 hours after labeling with the psoralen biotin, they were degraded.

[2] = target: T1, SP6 RNA polymerase (Enterobacteria phage SP6, UniProt P06221); assay: In vitro transcription reaction (MAXIscript kit), UTP[α-32P] incorporation; conditions: 20 mM reducing reagent
T1 construct: purchased Ambion, Inc
T1 sequence (P06221 1-874): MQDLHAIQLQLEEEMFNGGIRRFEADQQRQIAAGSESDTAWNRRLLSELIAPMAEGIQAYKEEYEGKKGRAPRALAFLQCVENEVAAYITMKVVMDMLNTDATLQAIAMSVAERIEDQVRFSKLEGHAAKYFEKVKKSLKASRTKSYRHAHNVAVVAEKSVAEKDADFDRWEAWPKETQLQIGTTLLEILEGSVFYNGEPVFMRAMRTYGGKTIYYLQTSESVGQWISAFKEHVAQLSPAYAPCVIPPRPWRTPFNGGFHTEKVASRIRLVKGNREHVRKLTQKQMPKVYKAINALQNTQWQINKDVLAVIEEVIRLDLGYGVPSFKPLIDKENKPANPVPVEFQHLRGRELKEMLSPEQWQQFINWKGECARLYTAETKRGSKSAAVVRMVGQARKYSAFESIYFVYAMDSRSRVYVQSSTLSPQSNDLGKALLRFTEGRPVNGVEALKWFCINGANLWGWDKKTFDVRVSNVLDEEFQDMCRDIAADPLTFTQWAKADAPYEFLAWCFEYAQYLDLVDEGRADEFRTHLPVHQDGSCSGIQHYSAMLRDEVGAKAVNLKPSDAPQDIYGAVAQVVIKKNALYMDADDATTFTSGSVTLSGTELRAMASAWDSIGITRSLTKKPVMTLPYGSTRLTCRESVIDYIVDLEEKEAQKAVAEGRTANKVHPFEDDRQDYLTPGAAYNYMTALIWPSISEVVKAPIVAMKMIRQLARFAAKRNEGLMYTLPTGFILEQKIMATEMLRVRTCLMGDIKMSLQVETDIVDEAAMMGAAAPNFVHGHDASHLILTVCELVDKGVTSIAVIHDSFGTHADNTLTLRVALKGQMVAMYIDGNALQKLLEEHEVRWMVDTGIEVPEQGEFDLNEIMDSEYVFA
Procedure: (§1) FIG. 3. […] Transcriptions were performed with T7, T3 and SP6 RNA polymerase in the presence and absence of 20 mM DTT. For each RNA polymerase reaction, pTRI-Xef DNA was the template and UTP[α^32P] was included to measure the efficiency of transcription. Duplicates were performed for each reaction. TCA precipitations were performed on each transcription reaction to measure the percent of the UTP[α^32P] incorporated into RNA.
(§2) The transcription reactions were based on the MAXIscript™ transcription kit (Ambion, Inc.). The following were assembled with or without 20 mM reducing reagent in a final volume of 18 μl: NTPs (0.5 mM each), 1 μg linearized DNA template, 2 μl 10 × transcription buffer, and 0.2 μl UTP [α-^32P] (800 Ci/mmol). The reaction mixtures were incubated 60° C. for 10 minutes and then 2 μl of the either SP6, T7 or T3 RNA polymerase (10 units/μl) were added to the reactions, incubated 30° C. for 60 minutes and then TCA precipitated to assess the incorporation of the radioactive label.

[3] = target: T2, T3 RNA polymerase (Enterobacteria phage T3, UniProt P07659); assay: as above; conditions: 20 mM reducing reagent
T2 construct: purchased Ambion, Inc
Procedure: as §1, §2

[4] = target: T3, T7 RNA polymerase (Escherichia phage T7, UniProt P00573); assay: as above; conditions: 20 mM reducing reagent
T3 construct: purchased Ambion, Inc
Procedure: as §1, §2

[5] = target: T4, RNase A (Bos taurus, UniProt P61823); assay: RNase A inactivation, mouse total RNA on agarose formaldehyde gel
T4 sequence (P61823 27-150): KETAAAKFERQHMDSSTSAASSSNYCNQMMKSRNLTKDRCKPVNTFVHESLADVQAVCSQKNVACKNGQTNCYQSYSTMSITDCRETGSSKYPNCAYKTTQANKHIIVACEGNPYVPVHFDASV
Procedure: The non-isotopic assay uses total RNA isolated from mouse as the substrate for the RNase mixture. […] A quantity of 4 μg of total RNA isolated from mouse liver or brain was dissolved in an aqueous solution, usually water or 1 mM sodium citrate (pH 6.6). The treated ribonuclease sample was added to the total RNA and then incubated at 37° C. for 1 or 16 hours, depending on the sensitivity desired for the assay. After incubation, the RNA was fractionated in a formaldehyde 1% agarose gel. The RNA was detected by staining with ethidium bromide and then illuminating the gel with ultraviolet light. The RNA fluoresces in the gel. Untreated total RNA was also fractionated as a control with the test samples for comparative purposes. […] Intact total RNA has two major bands produced by the 28S and 18S ribosomal RNA. […] RNase A, at 200 ng/ml instead of 10 μg/ml, was treated with or without 4 mM DTT in Boshes' solution A at 4° C. for 20 minutes. RNase A activity was then tested by incubating mouse liver total RNA with the treated RNase A at 37° C. for 60 minutes. The mouse RNA was then fractionated by electrophoresis in a 1% agarose formaldehyde gel. […] RNase A was diluted to 154 ng/ml in 1 mM sodium citrate (pH 6.4) or in Boshes' (1970) buffer A. DTT was added to the samples to 4 mM or 20 mM and then incubated at 4° C. or 60° C. for 20 minutes.

T3 sequence (P00573 whole entry): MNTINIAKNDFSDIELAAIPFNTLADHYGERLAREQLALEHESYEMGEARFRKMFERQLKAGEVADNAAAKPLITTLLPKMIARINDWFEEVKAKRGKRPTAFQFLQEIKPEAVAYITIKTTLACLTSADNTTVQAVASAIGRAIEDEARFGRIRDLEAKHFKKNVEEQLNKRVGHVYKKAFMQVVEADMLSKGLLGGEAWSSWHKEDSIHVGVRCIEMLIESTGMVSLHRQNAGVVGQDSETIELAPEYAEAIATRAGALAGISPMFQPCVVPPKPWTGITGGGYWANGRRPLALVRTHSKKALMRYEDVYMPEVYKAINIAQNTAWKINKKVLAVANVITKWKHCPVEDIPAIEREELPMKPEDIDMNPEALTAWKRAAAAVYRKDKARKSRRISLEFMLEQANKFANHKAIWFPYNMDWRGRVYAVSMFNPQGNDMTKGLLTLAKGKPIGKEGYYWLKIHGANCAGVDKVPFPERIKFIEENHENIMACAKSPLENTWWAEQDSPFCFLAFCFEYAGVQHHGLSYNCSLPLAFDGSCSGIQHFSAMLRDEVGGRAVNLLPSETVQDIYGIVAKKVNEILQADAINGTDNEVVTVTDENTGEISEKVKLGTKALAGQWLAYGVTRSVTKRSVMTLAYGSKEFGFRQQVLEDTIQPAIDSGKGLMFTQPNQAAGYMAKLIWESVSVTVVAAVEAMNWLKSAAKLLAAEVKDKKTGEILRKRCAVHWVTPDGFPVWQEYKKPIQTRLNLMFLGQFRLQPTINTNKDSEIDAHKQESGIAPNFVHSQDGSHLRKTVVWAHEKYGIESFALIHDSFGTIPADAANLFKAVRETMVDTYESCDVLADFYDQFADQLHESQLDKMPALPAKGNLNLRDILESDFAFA
T2 sequence (P07659 whole entry): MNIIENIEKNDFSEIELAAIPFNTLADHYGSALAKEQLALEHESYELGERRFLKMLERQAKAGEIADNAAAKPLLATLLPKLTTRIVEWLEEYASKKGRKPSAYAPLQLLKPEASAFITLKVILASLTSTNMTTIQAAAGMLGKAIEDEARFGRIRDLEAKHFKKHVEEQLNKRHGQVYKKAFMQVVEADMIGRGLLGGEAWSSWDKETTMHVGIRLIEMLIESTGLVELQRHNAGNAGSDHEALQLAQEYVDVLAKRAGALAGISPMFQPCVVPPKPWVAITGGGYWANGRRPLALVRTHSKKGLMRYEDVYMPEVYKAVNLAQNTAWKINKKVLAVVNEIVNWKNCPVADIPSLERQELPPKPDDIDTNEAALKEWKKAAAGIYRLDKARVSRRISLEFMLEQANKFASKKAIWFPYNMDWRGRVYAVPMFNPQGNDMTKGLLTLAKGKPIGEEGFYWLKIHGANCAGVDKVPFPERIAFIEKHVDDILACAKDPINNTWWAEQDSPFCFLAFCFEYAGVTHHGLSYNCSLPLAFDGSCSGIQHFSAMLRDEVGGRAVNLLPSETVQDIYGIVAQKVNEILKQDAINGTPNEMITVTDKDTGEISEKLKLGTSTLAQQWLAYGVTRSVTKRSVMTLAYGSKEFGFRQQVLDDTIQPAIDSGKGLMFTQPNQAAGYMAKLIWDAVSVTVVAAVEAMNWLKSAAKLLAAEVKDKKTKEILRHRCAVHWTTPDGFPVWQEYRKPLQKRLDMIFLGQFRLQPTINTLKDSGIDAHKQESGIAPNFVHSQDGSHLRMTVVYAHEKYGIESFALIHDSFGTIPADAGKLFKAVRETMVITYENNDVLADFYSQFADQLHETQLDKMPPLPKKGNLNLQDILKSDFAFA

SMILES: O[C@H](CS)[C@H](O)CS [DTT, dithiothreitol]
- integrity of psoralen biotin labeled Millennium Markers [1]: remained intact
- inhibition of SP6 RNA polymerase transcription [2]: does not inhibit; also recorded: None of the three polymerases were inhibited
- inhibition of T3 RNA polymerase transcription [3]: does not inhibit; also recorded: None of the three polymerases were inhibited
- inhibition of T7 RNA polymerase transcription [4]: does not inhibit; also recorded: None of the three polymerases were inhibited
- RNase A inactivation ([5]; RNase A 154 ng/ml, 4 mM DTT, 4° C. for 20 minutes): not inactivated
- RNase A inactivation ([5]; RNase A 154 ng/ml, 4 mM DTT, 60° C. for 20 minutes): completely inactivated
- RNase A inactivation ([5]; RNase A 154 ng/ml, 20 mM DTT, 4° C. for 20 minutes): not inactivated
- RNase A inactivation ([5]; RNase A 154 ng/ml, 20 mM DTT, 60° C. for 20 minutes): completely inactivated
- RNase A inactivation ([5]; RNase A 200 ng/ml, 4 mM DTT, Boshes' solution A, 4° C. for 20 minutes): not inactivated
- RNase A inactivation ([5]; RNase A, 20 mM DTT, 60° C. for 20 minutes): completely inactivated

Reference: patent publication US6825340B2, “Methods and reagents for inactivating ribonucleases” (Ambion, Inc., priority 1998, dated 2004)
